Results: patent US20110124574A1, “RESTORATION OF ESTROGEN RECEPTOR-(ALPHA) ACTIVITY” (priority 2008, published 2011)
Where no end group is shown, it is not given here. The star is where a group is joined. For = O=C*

Columns and labels:
Assay type in all cases: cell-based, human
ERα promoter = assay: Bisulfite genomic sequencing of the ERα promoter in MDA-MB-231 cells; settings: 48 hours, rWnt-5a 0.6 μg/ml, Foxy-5 100 μM
Protocol: MDA-MB-231 cells were grown in normal media and either left untreated, or stimulated with rWnt-5a protein (rWnt-5a, 0.6 μg/ml)) or the Wnt-5a derived Foxy-5 peptide (F5, 100 μM), for 48 hours. MCF-7 cells were grown for the same amount of time, and were left untreated. DNA was extracted from each sample and subjected to bisulfite modification. Bisulfite treated DNA was subjected to bisulfite genomic sequencing (BGS) of the ERα promoter using nested PCR with primers for the ERα promoter region. PCR products were cloned and 10 random clones sequenced. Filled (black) circles represent methylation at a given cytosine, empty (white) circles represent either unmethyllated cytosine or cytosines demethylated following rWnt-5a or Foxy-5 treatment. The numbers represent the position of CpG dinculeotides relative to the transcription start site (+1). The TATA box is located between positions −17 and +13.
DNA was extracted from cells according to standard procedures. 1 μg of DNA was then bisulfite treated using the EpiTect Bisulfite Kit (Qiagen) and amplified via nested PCR with primers for the ERα promoter region. PCR products were cloned using the TOPO TA cloning kit (Invitrogen). 10 random clones were sequenced using an AB13730 DNA analyzer (Applied Biosystems).

ERα [1] = assay: RT-PCR of estrogen responsive genes CATD and EBAG9 after estradiol and tamoxifen; settings: MDA-MB-231, hormone free media, pretreatment, estradiol plus tamoxifen, at 48 hours
Protocol: MDA-MB-231 cells were grown in 6 well plates and stimulated with recombinant Wnt-5a (rW5a) or the Wnt-5a derived Foxy-5 peptide (F5), for 24 h or 48 h. The ERα ligand estradiol was added for the final 22 h, and tamoxifen for the final 20 h to a subset of samples. RNA was extracted at the end time point, cDNA synthesized and subjected to RT-PCR for Cathepsin D (CATD), ER-binding fragment associated antigen 9 (EBAG9) and the housekeeping gene, β-actin.
cDNA was synthesized from 1 μg of total RNA using M-MuLV reverse transcriptase (Fermentas) in a MJ Mini Personal Thermal Cycler (Bio-Rad (Hercules Calif.)). All RT-PCR was performed in a designated clean PCR hood. RT-PCR was performed using a master mix containing with 5 μl of 10× buffer, 5 μl of 25 mM MgCl2, 1 μl 10 mM dNTP, 1 μl forward primer, 1 μl reverse primer and 0.2 μl of Taq polymerase (Fermentas (Ontario, Canada)) per sample. For detection of the progesterone receptor (PR), semi nested RT-PCR was performed to increase sensitivity, whereby 10 μl of the initial PCR reaction product was added to a second PCR reaction with a second internal reverse primer. Both A and β isoforms are amplified with these primers.

ERα [2] = assay: ERα mRNA by RT-PCR in stimulated MDA-MB-468 cells; settings: time points 6, 12, 18 and 24 hours
Protocol: Breast cancer cells were grown in 6 well plates and stimulated with recombinant Wnt-5a protein (rW5a) or the Wnt-5a derived Foxy-5 peptide (F5), for 6, 12, 18 or 24 h. RNA was extracted at the end time point, cDNA synthesized and subjected to RT-PCR for ERα and the housekeeping gene, β-actin. A: MDA-MB-231 breast cancer cells, B: MDA-MB-468 breast cancer cells. The positive control (Pos) is RNA extracted from T47D cells which express ERα. The negative control represents a water control.
Stimulation of cells was performed with recombinant Wnt-5a (0.6 μg/ml) and recombinant Wnt-3a (0.1 μg/ml and in a control experiment, 0.6 μg/ml) (R&D Systems Abington, UK) for times as indicated. The Wnt-5a derived formylated hexapeptide, Foxy-5 (formyl-MDGCEL) (SEQ. ID. NO. 1) designed in the laboratory of the inventors, and a formylated random hexapeptide (formyl-MSADVG) (SEQ: ID: NO: 16) were either synthesized by Pepscan Presto (Lelystad, The Netherlands) or Inbiolabs (Tallinn, Estonia). The peptides were purified by RP-HPLC and mass spectrometry, and the >95% pure peptides were synthesized three times. […]
RNA extraction was performed in a designated clean RNA area with the addition of 500 μl TRIzol to each sample. […] The RNA concentration was measured using a Nanodrop Spectrophotometer ND-1000 (Bio-Rad (Hercules Calif.)). […]

formyl-MDGCEL (For-MDGCEL; listed as Homo sapiens) [Foxy-5]
methylation of the ERα CpG island (ERα promoter): demethylated
Estradiol induced expression of CATD (ERα [1]): consistently lost
Estradiol induced expression of EBAG9 (ERα [1]): consistently lost
stimulation time after which ERα mRNA was detected (ERα [2]): 6 h

B1: recombinant Wnt-5a: recombinant Wnt-5a protein (R&D Systems) (protein, UniProt P41221 62-380, looked up)
Protein Wnt-5a: IIGAQPLCSQLAGLSQGQKKLCHLYQDHMQYIGEGAKTGIKECQYQFRHRRWNCSTVDNTSVFGRVMQIGSRETAFTYAVSAAGVVNAMSRACREGELSTCGCSRAARPKDLPRDWLWGGCGDNIDYGYRFAKEFVDARERERIHAKGSYESARILMNLHNNEAGRRTVYNLADVACKCHGVSGSCSLKTCWLQLADFRKVGDALKEKYDSAAAMRLNSRGKLVQVNSRFNSPTTQDLVYIDPSPDYCVRNESTGSLGTQGRLCNKTSEGMDGCELMCCGRGYDQFKTVQTERCHCKFHWCCYVKCKKCTEIVDQFVCK
methylation of the ERα CpG island (ERα promoter): demethylated
Estradiol induced expression of CATD (ERα [1]): consistently lost
Estradiol induced expression of EBAG9 (ERα [1]): consistently lost
stimulation time after which ERα mRNA was detected (ERα [2]): 12 h
